In US20200093807A1, “NEW USE OF RIFAMYCIN-NITROIMIDAZOLE CONJUGATE MOLECULE” (TenNor Therapeutics Limited, priority 2017, published 2020):
Values after ≈ are worked out from the molar mass of the structure shown.

How the values were obtained:
[1] = test system: Gardnerella; assay: MIC, agar dilution, Gardnerella; assay type: cell-based; conditions: Gardnerella as major BV bacteria
[2] = test system: Clostridium sporogenes ATCC 19404; assay: MIC, anaerobic agar dilution (CLSI); assay type: cell-based; conditions: ATCC19404, 35° C., 42-48 hours
[3] = test system: Prevotella bivia (MET^R) MMX 3454; assay: MIC, anaerobic agar dilution (CLSI); assay type: cell-based; conditions: 35° C., 42-48 hours
[4] = test system: Bacteroides fragilis (QC) ATCC 25285; assay: MIC, anaerobic agar dilution (CLSI); assay type: cell-based; conditions: ATCC25285, 35° C., 42-48 hours
[5] = test system: Clostridium perfringens (MET^R) MMX 3521; assay: microbe, parasite or virus in culture; assay type: cell-based
[6] = test system: Peptococcus (niger) ATCC 27731; assay: MIC, anaerobic agar dilution (CLSI); assay type: cell-based; conditions: ATCC27731, 35° C., 42-48 hours
[7] = test system: Bacterial Vaginosis (BV); conditions: within 3 months; cited from earlier work
[8] = test system: Atopobium vaginae BAA-55; assay: MIC, anaerobic agar dilution (CLSI); assay type: cell-based; conditions: Fannyhessea vaginae, BAA55
[9] = test system: Bacteroides thetaiotaomicron (MET^R) MMX 3409; assay: microbe, parasite or virus in culture; assay type: cell-based; conditions: Bacteroides thetaiotaomicron
[10] = test system: Gardnerella vaginalis ATCC 14018; assay: MIC, anaerobic agar dilution (CLSI); assay type: cell-based; conditions: ATCC14018, 35° C., 42-48 hours
[11] = test system: Bifidobacterium (breve) ATCC 15698; assay: MIC, anaerobic agar dilution (CLSI); assay type: cell-based; conditions: ATCC15698, 35° C., 42-48 hours
[12] = test system: Prevotella disiens MMX 3446; assay: MIC, anaerobic agar dilution (CLSI); assay type: cell-based; conditions: MMX3446, 35° C., 42-48 hours
[13] = test system: Eubacterium (rectale) ATCC 33656; assay: MIC, anaerobic agar dilution (CLSI); assay type: cell-based; conditions: Agathobacter rectalis, ATCC33656, 35° C., 42-48 hours
[14] = test system: Prevotella intermedia ATCC 25611; assay: MIC, anaerobic agar dilution (CLSI); assay type: cell-based; conditions: ATCC25611, 35° C., 42-48 hours
[15] = test system: Actinomyces naeslundii ATCC 12104; assay: MIC, anaerobic agar dilution (CLSI); assay type: cell-based; conditions: ATCC12104, 35° C., 42-48 hours
[16] = test system: Bacteroides fragilis (MET^R) MMX 3387; assay: MIC, anaerobic agar dilution (CLSI); assay type: cell-based; conditions: Bacteroides fragilis
[17] = test system: Lactobacillus crispatus ATCC 33820; assay: MIC, anaerobic agar dilution (CLSI); assay type: cell-based; conditions: Lactobacillus crispatus, ATCC33820
[18] = test system: Bifidobacterium longum ATCC 15707; assay: MIC, anaerobic agar dilution (CLSI); assay type: cell-based; conditions: ATCC15707, 35° C., 42-48 hours
[19] = test system: Mobiluncus (curtisii subsp. curtisii) ATCC 35241; assay: MIC, anaerobic agar dilution (CLSI); assay type: cell-based; conditions: ATCC35241, 35° C., 42-48 hours
[20] = test system: Prevotella bivia ATCC 29303; assay: MIC, anaerobic agar dilution (CLSI); assay type: cell-based; conditions: ATCC29303, 35° C., 42-48 hours
[21] = test system: Peptostreptococcus anaerobius ATCC 27337; assay: MIC, anaerobic agar dilution (CLSI); assay type: cell-based; conditions: ATCC27337, 35° C., 42-48 hours
[22] = test system: Peptostreptococcus (magnus) ATCC 14956; assay: MIC, anaerobic agar dilution (CLSI); assay type: cell-based; conditions: Finegoldia magna, ATCC14956, 35° C., 42-48 hours
[23] = test system: Fusobacterium nucleatum ATCC 10953; assay: MIC, anaerobic agar dilution (CLSI); assay type: cell-based; conditions: ATCC10953, 35° C., 42-48 hours
[24] = test system: Mobiluncus (mulieris) ATCC 35243; assay: MIC, anaerobic agar dilution (CLSI); assay type: cell-based; conditions: ATCC35243, 35° C., 42-48 hours
[25] = test system: Prevotella bivia MMX 3450; assay: MIC, anaerobic agar dilution (CLSI); assay type: cell-based; conditions: MMX3450, 35° C., 42-48 hours
[26] = test system: Bacteroides gracilis ATCC 33236; assay: MIC, anaerobic agar dilution (CLSI); assay type: cell-based; conditions: Campylobacter gracilis, ATCC33236
[27] = test system: Fusobacterium nucleatum ATCC 25586; assay: MIC, anaerobic agar dilution (CLSI); assay type: cell-based; conditions: ATCC25586, 35° C., 42-48 hours
[28] = test system: Bacteroides vulgatus (MET^R) MMX 3490; assay: MIC, anaerobic agar dilution (CLSI); assay type: cell-based; conditions: Phocaeicola vulgatus
[29] = test system: Peptoniphilus asaccharolyticus ATCC 29743; assay: MIC, anaerobic agar dilution (CLSI); assay type: cell-based; conditions: ATCC29743, 35° C., 42-48 hours
[30] = test system: Prevotella disiens MMX 3457; assay: MIC, anaerobic agar dilution (CLSI); assay type: cell-based; conditions: MMX3457, 35° C., 42-48 hours
[31] = test system: Bacteroides ovatus (MET^R) MMX 3504; assay: MIC, anaerobic agar dilution (CLSI); assay type: cell-based; conditions: 35° C., 42-48 hours
[32] = test system: Veionella parvula ATCC 17745; assay: MIC, anaerobic agar dilution (CLSI); assay type: cell-based; conditions: 35° C., 42-48 hours
[33] = test system: Bacteroides vulgatus MMX 8348; assay: MIC, anaerobic agar dilution (CLSI); assay type: cell-based; conditions: Phocaeicola vulgatus, MMX8348, 35° C., 42-48 hours
[34] = test system: Lactobacillus jensenii ATCC 25258; assay: MIC, anaerobic agar dilution (CLSI); assay type: cell-based; conditions: Lactobacillus jensenii, ATCC25258
[35] = test system: Lactobacillus gasseri ATCC 33323; assay: MIC, anaerobic agar dilution (CLSI); assay type: cell-based; conditions: Lactobacillus gasseri, ATCC33323
[36] = test system: Gardnerella vaginalis ATCC 49145; assay: MIC, anaerobic agar dilution (CLSI); assay type: cell-based; conditions: ATCC49145, 35° C., 42-48 hours
[37] = test system: Anaerococcus (Anaerococcus(prevotii)) ATCC 9321; assay: MIC, anaerobic agar dilution (CLSI); assay type: cell-based; conditions: 35° C., 42-48 hours
[38] = test system: Treponema denticola ATCC 35405; assay: MIC, anaerobic agar dilution (CLSI); assay type: cell-based; conditions: ATCC35405, 35° C., 42-48 hours
[39] = test system: Bacteroides uniformis MMX 1277; assay: MIC, anaerobic agar dilution (CLSI); assay type: cell-based; conditions: Bacteroides uniformis, MMX1277
[40] = test system: Prevotella asaccharolytica (MET^R) MMX 3552; assay: MIC, anaerobic agar dilution (CLSI); assay type: cell-based; conditions: 35° C., 42-48 hours
[41] = test system: Bacteroides fragilis (QC) ATCC 25285; conditions: range printed in parentheses; cited from earlier work

For `Cc1ncc([N+](=O)[O-])n1CCO` [Metronidazole], the MIC [1] was 4 µg/mL (≈ 23.4 µM), the MIC [2] was 0.06 µg/mL (≈ 0.351 µM) and the MIC [3] was 0.5 µg/mL (≈ 2.92 µM). For the same molecule, the MIC [4] was 1 µg/mL (≈ 5.84 µM), the MIC [5] was > 256 µg/mL and the MIC [6] was 0.5 µg/mL (≈ 2.92 µM). For the same molecule, the recurrence rate [7] was “up to 58%”, the MIC [8] was 128 µg/mL (≈ 748 µM) and the MIC [9] was 2 µg/mL (≈ 11.7 µM). It also gave an MIC [10] of 4 µg/mL (≈ 23.4 µM), an MIC [11] of 8 µg/mL (≈ 46.7 µM) and an MIC [12] of 0.5 µg/mL (≈ 2.92 µM). The MIC [13] was 0.5 µg/mL (≈ 2.92 µM), the MIC [14] was 1 µg/mL (≈ 5.84 µM) and the MIC [15] was 256 µg/mL (≈ 1500 µM). The MIC [16] was > 256 µg/mL, the MIC [17] was > 256 µg/mL and the MIC [18] was 8 µg/mL (≈ 46.7 µM). The MIC [19] was 2 µg/mL (≈ 11.7 µM), the MIC [20] was 1 µg/mL (≈ 5.84 µM) and the MIC [21] was 0.25 µg/mL (≈ 1.46 µM). It also gave an MIC [22] of 1 µg/mL (≈ 5.84 µM), an MIC [23] of 0.06 µg/mL (≈ 0.351 µM) and an MIC [24] of 0.5 µg/mL (≈ 2.92 µM). The MIC [25] was 1 µg/mL (≈ 5.84 µM), the MIC [26] was > 256 µg/mL and the MIC [27] was 2 µg/mL (≈ 11.7 µM). It also gave an MIC [28] of 128 µg/mL (≈ 748 µM), an MIC [29] of 0.5 µg/mL (≈ 2.92 µM) and an MIC [30] of 0.5 µg/mL (≈ 2.92 µM). The MIC [31] was 2 µg/mL (≈ 11.7 µM), the MIC [32] was 2 µg/mL (≈ 11.7 µM) and the MIC [33] was 1 µg/mL (≈ 5.84 µM). For the same molecule, the MIC [34] was > 256 µg/mL, the MIC [35] was > 256 µg/mL and the MIC [36] was 4 µg/mL (≈ 23.4 µM). For the same molecule, the MIC [37] was 2 µg/mL (≈ 11.7 µM), the MIC [38] was 0.5 µg/mL (≈ 2.92 µM) and the MIC [39] was > 256 µg/mL. The MIC [40] was 1 µg/mL (≈ 5.84 µM) and the “MIC range in parentheses (QC strain reference range)” value [41] was 0.25 to 1 µg/mL.
